# Measured values as given in US20260262643A1, “HERBICIDAL BENZOXAZINES” (FMC CORPORATION, priority 2022, published 2026).
# Key:
# blackgrass [1] = test: Test A preemergence; type: in vivo, Alopecurus myosuroides
# How it was run: (§1)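 Seeds in loam–sand blend received a directed preemergence soil spray of compound in non-phytotoxic solvent with surfactant; postemergence plants (2–10 cm, one- to two-leaf stage) were sprayed with the same formulation. After 10 days in greenhouse, injury was rated visually versus untreated controls, 0 (no effect) to 100 (complete control).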
# corn [2] = test: Test A preemergence; type: in vivo, Zea mays
# How it was run: as §1
# foxtail, giant [3] = test: Test A preemergence; type: in vivo, Setaria faberi
# How it was run: as §1
# goosegrass [4] = test: Test A preemergence; type: in vivo, Eleusine indica
# How it was run: as §1
# kochia [5] = test: Test A preemergence; type: in vivo, Bassia scoparia
# How it was run: as §1
# oat, wild [6] = test: Test A preemergence; type: in vivo, Avena fatua
# How it was run: as §1
# pigweed, palmer [7] = test: Test A preemergence; type: in vivo, Amaranthus palmeri
# How it was run: as §1
# ragweed [8] = test: Test A preemergence; type: in vivo, Ambrosia artemisiifolia; settings: 125 g ai/ha, visual injury after 10 days, 0 to 100 scale, 0 is no effect, 100 is complete control
# How it was run: as §1
# ryegrass, Italian [9] = test: Test A preemergence; type: in vivo, Lolium multiflorum
# How it was run: as §1
# soybean [10] = test: Test A preemergence; type: in vivo, Glycine max
# How it was run: as §1
# wheat [11] = test: Test A preemergence; type: in vivo, Triticum aestivum
# How it was run: as §1
# blackgrass [12] = test: Test A postemergence; type: in vivo, Alopecurus myosuroides; settings: postemergence, 10 days
# How it was run: as §1
# corn [13] = test: Test A postemergence; type: in vivo, Zea mays; settings: postemergence, 10 days
# How it was run: as §1
# foxtail, giant [14] = test: Test A postemergence; type: in vivo, Setaria faberi; settings: postemergence, 10 days
# How it was run: as §1
# goosegrass [15] = test: Test A postemergence; type: in vivo, Eleusine indica; settings: postemergence, 10 days
# How it was run: as §1
# kochia [16] = test: Test A postemergence; type: in vivo, Bassia scoparia; settings: postemergence, 10 days
# How it was run: as §1
# oat, wild [17] = test: Test A postemergence; type: in vivo, Avena fatua; settings: postemergence, 10 days
# How it was run: as §1
# pigweed, palmer [18] = test: Test A postemergence; type: in vivo, Amaranthus palmeri; settings: postemergence, 10 days
# How it was run: as §1
# ragweed [19] = test: Test A postemergence; type: in vivo, Ambrosia artemisiifolia; settings: postemergence, 10 days
# How it was run: as §1
# ryegrass, Italian [20] = test: Test A postemergence; type: in vivo, Lolium multiflorum; settings: postemergence, 10 days
# How it was run: as §1
# soybean [21] = test: Test A postemergence; type: in vivo, Glycine max; settings: postemergence, 10 days
# How it was run: as §1
# wheat [22] = test: Test A postemergence; type: in vivo, Triticum aestivum; settings: postemergence, 10 days
# How it was run: as §1
# galium = test: Test A postemergence; type: in vivo, Galium aparine; settings: postemergence, 10 days
# How it was run: as §1
# horseweed = test: Test A postemergence; type: in vivo, Erigeron canadensis; settings: postemergence, 10 days
# How it was run: as §1
# barnyardgrass = test: Test B flooded paddy test; type: in vivo, Echinochloa crus-galli; settings: 250 g ai/ha, Flood, 13 days, 0 to 100 scale (0 no effect, 100 complete control)
# How it was run: (§2)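 Plants at the 2-leaf stage were flooded to 3 cm above the soil, and test compounds were applied directly into the paddy water, with that depth held throughout. After 13 days in a greenhouse, injury was rated visually against untreated controls on a 0–100 scale (100 = complete control).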
# ducksalad = test: Test B flooded paddy test; type: in vivo, Heteranthera limosa; settings: 250 g ai/ha, Flood, 13 days, 0 to 100 scale (0 no effect, 100 complete control)
# How it was run: as §2
# rice = test: Test B flooded paddy test; type: in vivo, Oryza sativa; settings: 250 g ai/ha, Flood, 13 days, 0 to 100 scale (0 no effect, 100 complete control)
# How it was run: as §2
# sedge, umbrella = test: Test B flooded paddy test; type: in vivo, Cyperus difformis; settings: 250 g ai/ha, Flood, 13 days, 0 to 100 scale (0 no effect, 100 complete control)
# How it was run: as §2
# [23] = 125 g ai/ha, visual injury after 10 days, 0 to 100 scale, 0 is no effect, 100 is complete control
# [24] = 500 g ai/ha, 0 to 100 scale (0 no effect, 100 complete control), 10 days
# [25] = 125 g ai/ha, 0 to 100 scale, 0 no effect, 100 complete control
# [26] = 500 g ai/ha, visual injury, 0 to 100 scale (0 no effect, 100 complete control)
structure (smiles),measurement,setting,value
C#CCOc1ccc(-n2cnc(C(C)C)n2)cc1C(=O)N1C[C@H](C)Oc2c(Cl)cccc21 [Compound 107],"Plant response rating, Blackgrass",blackgrass [1]; [23],20
same,"Plant response rating, Blackgrass",blackgrass [1]; [24],40
same,"Plant response rating, Corn",corn [2]; [23],10
same,"Plant response rating, Corn",corn [2]; [24],50
same,"Plant response rating, Foxtail, Giant","foxtail, giant [3]; [23]",100
same,"Plant response rating, Foxtail, Giant","foxtail, giant [3]; [24]",100
same,"Plant response rating, Goosegrass",goosegrass [4]; [23],100
same,"Plant response rating, Goosegrass",goosegrass [4]; [24],100
same,"Plant response rating, Kochia",kochia [5]; [23],20
same,"Plant response rating, Kochia",kochia [5]; [24],80
same,"Plant response rating, Oat, Wild","oat, wild [6]; [23]",60
same,"Plant response rating, Oat, Wild","oat, wild [6]; [24]",70
same,"Plant response rating, Pigweed, Palmer","pigweed, palmer [7]; [23]",100
same,"Plant response rating, Pigweed, Palmer","pigweed, palmer [7]; [24]",100
same,"Plant response rating, Ragweed",ragweed [8],30
same,"Plant response rating, Ryegrass, Italian","ryegrass, Italian [9]; [23]",80
same,"Plant response rating, Ryegrass, Italian","ryegrass, Italian [9]; [24]",100
same,"Plant response rating, Soybean",soybean [10]; [23],50
same,"Plant response rating, Soybean",soybean [10]; [24],70
same,"Plant response rating, Wheat",wheat [11]; [23],0
same,"Plant response rating, Wheat",wheat [11]; [24],40
same,Blackgrass plant response rating,blackgrass [12]; [25],60
same,"Plant response rating, Blackgrass",blackgrass [12]; [26],80
same,Corn plant response rating,corn [13]; [25],70
same,"Plant response rating, Corn",corn [13]; [26],80
same,"Foxtail, Giant plant response rating","foxtail, giant [14]; [25]",90
same,"Plant response rating, Foxtail, Giant","foxtail, giant [14]; [26]",100
same,Goosegrass plant response rating,goosegrass [15]; [25],70
same,"Plant response rating, Goosegrass",goosegrass [15]; [26],100
same,Kochia plant response rating,kochia [16]; [25],80
same,"Plant response rating, Kochia",kochia [16]; [26],90
same,"Oat, Wild plant response rating","oat, wild [17]; [25]",30
same,"Plant response rating, Oat, Wild","oat, wild [17]; [26]",70
same,"Pigweed, Palmer plant response rating","pigweed, palmer [18]; [25]",90
same,"Plant response rating, Pigweed, Palmer","pigweed, palmer [18]; [26]",100
same,Ragweed plant response rating,ragweed [19]; [25],50
same,"Plant response rating, Ragweed",ragweed [19]; [26],70
same,"Ryegrass, Italian plant response rating","ryegrass, Italian [20]; [25]",20
same,"Plant response rating, Ryegrass, Italian","ryegrass, Italian [20]; [26]",60
same,Soybean plant response rating,soybean [21]; [25],100
same,"Plant response rating, Soybean",soybean [21]; [26],100
same,Wheat plant response rating,wheat [22]; [25],30
same,"Plant response rating, Wheat",wheat [22]; [26],30
same,Galium plant response rating,galium; [25],100
same,"Plant response rating, Galium",galium; [26],100
same,Horseweed plant response rating,horseweed; [25],20
same,"Plant response rating, Horseweed",horseweed; [26],30
same,"Plant response rating, Barnyardgrass",barnyardgrass,70
same,"Plant response rating, Ducksalad",ducksalad,25
same,"Plant response rating, Rice",rice,20
same,"Plant response rating, Sedge, Umbrella","sedge, umbrella",90
